In patent US11564923B2, “Compounds and pharmaceutical compositions thereof for the treatment of inflammatory disorders” (Galapagos NV, priority 2017, dated 2023):
Counter-ions that a name gives are not always drawn.

What was measured:
[1] = molecular target: T1, Recombinant human JAK2 (catalytic domain, amino acids 808-1132) (Homo sapiens, UniProt O60674); test: JAK2 inhibition assay; assay type: biochemical; details: read-out: JAK2 potency IC50; note: 0.7 µM ATP
T1 construct: catalytic domain, amino acids 808-1132
Procedure: (§1) After 60 min at room temperature, reactions are stopped by adding 20 μL/well of detection mixture (1× detection buffer (Perkin Elmer, catalog number CR97-100) with 0.5 nM Europium-anti-phosphotyrosine (PT66) (Perkin Elmer, catalog number AD0068/AD0069) and 10 mM EDTA). […] Kinase activity is calculated by subtracting the ratio obtained in the presence of a positive control inhibitor (1 μM staurosporine) from the ratio obtained in the presence of vehicle. The ability of a test compound to inhibit this activity (or percentage inhibition) is determined as:
(§2) [formula] wherein Fluorescent ratio test compound=ratio RFU665/RFU615*1000 determined for sample with test compound present Fluorescent ratio control=ratio RFU665/RFU615*1000 determined for sample with positive control inhibitor Fluorescent ratio vehicle=ratio RFU665/RFU615*1000 determined in the presence of vehicle
(§3) Dose dilution series are prepared for compound enabling the testing of dose-response effects in the JAK2 assay and the calculation of the IC50 for the compound. Each compound is routinely tested at concentration of 20 μM followed by a 1/5 serial dilution, 10 points in a final concentration of 1% DMSO. […] The data are expressed as the average IC50 from the assays.

[2] = molecular target: T2, Recombinant human JAK1 (catalytic domain, amino acids 866-1154) (Homo sapiens, UniProt P23458); test: JAK1 inhibition assay; assay type: biochemical; details: read-out: JAK1 potency IC50
T2 construct: catalytic domain, amino acids 866-1154
Procedure: as §1, with “CR97-100),” for “CR97-100) with”, “AD0068/AD0069),” for “AD0068/AD0069) and”
as §2
as §3, with “series were” for “series are”, “for the compounds” for “for compound”, “the JAK1” for “the JAK2”

[3] = system: IL-12 activation of STAT4 in NK-92 cells; test: IL-12 activation of STAT4 in NK-92 cells using AphaLISA SureFire technology; assay type: cell-based; details: Homo sapiens, NK92; IL-12 activation of STAT4 in NK-92 cells, AlphaLISA SureFire; average IC50; read-out: IL12 pSTAT4 IC50
Procedure: IL-2 is added freshly to the medium with each medium refreshment step. Cells are cultured in a humidified incubator at 37° C. 5% CO2.
A subcultured fraction of NK-92 cells is washed once in culture medium without rhIL-2 the day before the experiment and incubated overnight in a culture flask.
5% CO2. […] NK-92 cells are triggered with rhIL-12 for 30 min at 37° C. 5% CO2.
After 30 min of cytokine stimulation the cells are lysed by addition of 15 μL 5× lysis buffer (supplemented with the AlphaLISA kit). After 10 minutes, plates are frozen at −80° C. overnight and the next day the levels of phospho-STAT4 are quantified using the AlphaLISA SureFire ULTRA p-STAT4 (Tyr693) (Perkin Elmer, Catalogue number ALSU-PST4-A10K) according to the manufacturers instructions. AlphaLISA signal (relative light units) is measured using an Envision (Perkin Elmer).
(§4) The percentage inhibition is calculated as: […]
RLU(trigger/veh): Relative lumescent signal determined in presence of vehicle and trigger
RLU(test compound): Relative luminescent signal determined in presence of test compounds and trigger
PIN values are plotted for compounds tested in dose-response and IC50 values are derived using GraphPad Prism Software applying non-linear regression (sigmoidal) curve fitting. The data are expressed as the average IC50 from different experiments.

[4] = molecular target: T3, Recombinant human TYK2 catalytic domain (amino acids 871-1187) (Homo sapiens, UniProt P29597); test: TYK2 radioactive assay polyGT substrate; assay type: biochemical; note: 0.1 µM ATP
T3 construct: catalytic domain (amino acids 871-1187)
T3 sequence (P29597 871-1187): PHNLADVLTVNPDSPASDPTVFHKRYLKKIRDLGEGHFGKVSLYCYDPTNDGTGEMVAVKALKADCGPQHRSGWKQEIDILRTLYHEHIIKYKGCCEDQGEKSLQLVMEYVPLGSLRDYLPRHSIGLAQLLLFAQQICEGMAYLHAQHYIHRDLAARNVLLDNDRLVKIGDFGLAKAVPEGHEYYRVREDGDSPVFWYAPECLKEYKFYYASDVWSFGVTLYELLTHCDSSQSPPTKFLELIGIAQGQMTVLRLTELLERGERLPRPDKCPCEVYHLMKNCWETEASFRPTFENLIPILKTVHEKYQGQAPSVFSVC
How it was run: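 Reaction at 30° C. for 120 min, ended with 150 mM phosphoric acid, washed, counted; percent inhibition scaled between vehicle and 10 μM staurosporine cpm.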

[5] = system: IFNα activation of STAT1 in PBMC; test: IFNα activation of STAT1 in PBMC; assay type: cell-based; details: Homo sapiens; IFNα activation of STAT1 in PBMC; average IC50; read-out: IFNα signaling inhibitory potency IC50
Procedure: After these 2 wash steps the cell pellet is dissolved in ammonium chloride buffer (1.5 M NH4Cl, 100 mM NaHCO3 and 10 mM Na2.EDTA) for lysis of the red blood cells.
PBMC are treated with test compound for 30 min at 37° C. 5% CO2. […] After 30 min of test compound/vehicle pre-treatment, PBMC are stimulated for 30 min at 37° C. 5% CO2 with recombinant human IFNα (PeproTech, catalog number 300-02A) at a final concentration of 5 ng/mL by addition of 20 μL (10× concentrated) cytokine trigger to obtain a final volume of 200 μL per well.
After 30 min of cytokine stimulation, 200 μL of cell suspension is transferred to a 96-well V-bottom plate, centrifugated for 5 min at 1000 rpm to pellet cells, followed by removal of supernatant.
as §4
RCLU(vehicle control): Relative Chemiluminescent signal determined in presence of vehicle and trigger
RCLU(test compound): Relative Chemiluminescent signal determined in presence of test compounds and trigger
RCLU(positive control): Relative Chemiluminescent signal determined in presence of positive control and trigger
PIN values are plotted for compounds tested in dose-response and average IC50 values are derived using GraphiPad Prism Software applying non-linear regression (sigmoidal) curve fitting.

[6] = molecular target: Recombinant human JAK3 catalytic domain (amino acids 781-1124) (Homo sapiens, UniProt P52333); test: JAK3 inhibition assay; assay type: biochemical
Procedure: After 45 min at 30° C., reactions are stopped by adding 25 μL/well of 150 mM phosphoric acid. […] Plates are washed 6 times with 300 μL per well of a 75 mM phosphoric acid solution and the bottom of the plates is sealed. […] Kinase activity is calculated by subtracting counts per min (cpm) obtained in the presence of a positive control inhibitor (10 μM staurosporine) from cpm obtained in the presence of vehicle. The ability of a test compound to inhibit this activity (or percentage inhibition) is determined as: […]
cpm test compound=cpm determined for sample with test compound present cpm control=cpm determined for sample with positive control inhibitor cpm vehicle=cpm determined in the presence of vehicle
Dose dilution series were prepared for the compounds enabling the testing of dose-response effects in the JAK3 assay and the calculation of the IC50 for each compound. Each compound is routinely tested at concentration of 20 μM followed by a 1/5 serial dilution, 10 points in a final concentration of 1% DMSO.

Recombinant human JAK3 catalytic domain (amino acids 781-1124), sequence (P52333 781-1124): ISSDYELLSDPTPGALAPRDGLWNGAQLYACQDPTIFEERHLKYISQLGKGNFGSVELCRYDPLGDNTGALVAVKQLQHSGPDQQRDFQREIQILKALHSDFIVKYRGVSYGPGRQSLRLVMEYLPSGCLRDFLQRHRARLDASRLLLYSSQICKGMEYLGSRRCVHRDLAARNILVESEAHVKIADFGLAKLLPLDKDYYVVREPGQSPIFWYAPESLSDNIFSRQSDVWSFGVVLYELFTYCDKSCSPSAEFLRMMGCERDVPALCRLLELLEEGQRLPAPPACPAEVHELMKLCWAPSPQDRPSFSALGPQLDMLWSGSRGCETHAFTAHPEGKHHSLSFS
T2 sequence (P23458 866-1154): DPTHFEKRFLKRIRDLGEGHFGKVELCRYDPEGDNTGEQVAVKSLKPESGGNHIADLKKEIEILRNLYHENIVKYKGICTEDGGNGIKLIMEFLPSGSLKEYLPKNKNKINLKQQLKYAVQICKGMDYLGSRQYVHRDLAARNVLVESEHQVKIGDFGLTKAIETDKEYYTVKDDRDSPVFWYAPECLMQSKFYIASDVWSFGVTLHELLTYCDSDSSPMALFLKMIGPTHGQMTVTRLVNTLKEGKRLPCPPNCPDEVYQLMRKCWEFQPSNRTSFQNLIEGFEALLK
T1 sequence (O60674 808-1132): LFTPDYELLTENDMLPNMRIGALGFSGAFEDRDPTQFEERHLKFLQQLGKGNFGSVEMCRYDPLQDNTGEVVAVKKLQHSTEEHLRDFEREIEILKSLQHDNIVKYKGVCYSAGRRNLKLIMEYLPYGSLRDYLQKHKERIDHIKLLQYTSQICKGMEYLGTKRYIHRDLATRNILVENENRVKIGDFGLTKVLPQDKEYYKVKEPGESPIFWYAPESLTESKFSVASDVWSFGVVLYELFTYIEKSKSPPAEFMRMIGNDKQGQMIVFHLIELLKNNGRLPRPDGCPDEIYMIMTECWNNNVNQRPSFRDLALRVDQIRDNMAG

Cc1cc(C#N)ncc1Oc1cc(Nc2ccc(CN(C)CCN(C)C)cn2)c2ncn(C)c2n1 [Compound 83, 5-[7-[[5-[[2-(dimethylamino)ethyl-methylamino]methyl]pyridin-2-yl]amino]-3-methylimidazo[4,5-b]pyridin-5-yl]oxy-4-methylpyridine-2-carbonitrile formate salt]
IC50 [1]: 27.1 nM | IC50 [2]: 278 nM | IC50 [3]: 987 nM | IC50 [4]: 16.3 nM | IC50 [5]: 137 nM

Cn1cnc2c(Nc3cc(N)ncn3)cc(NC(C3CC3)C3CC3)nc21 [Compound 95, N7-(6-aminopyrimidin-4-yl)-N5-(dicyclopropylmethyl)-3-methyl-imidazo[4,5-b]pyridine-5,7-diamine]
IC50 [1]: 38 nM | IC50 [2]: 250 nM | IC50 [4]: 26.3 nM | IC50 [6]: 177 nM

Cc1cc(C#N)ncc1Oc1cc(Nc2ccc(C(=O)NCC(C)O)nc2)c2ncn(C)c2n1 (stereo not drawn) [Compound 30, 5-[5-(6-Cyano-4-methyl-pyridin-3-yloxy)-3-methyl-3H-imidazo[4,5-b]pyridin-7-ylamino]-pyridine-2-carboxylic acid (2-hydroxy-propyl)-amide]
IC50 [1]: 777 nM | IC50 [2]: 399 nM | IC50 [4]: 55.7 nM

COCCCNc1cc(Nc2cc(Oc3cnc(C#N)cc3C)nc3c2ncn3C)ncn1 [Compound 32, 5-{7-[6-(3-Methoxy-propylamino)-pyrimidin-4-ylamino]-3-methyl-3H-imidazo[4,5-b]pyridin-5-yloxy}-4-methyl-pyridine-2-carbonitrile]
IC50 [1]: 26.2 nM | IC50 [2]: 117 nM | IC50 [4]: 6.08 nM | IC50 [6]: 601 nM

CN(c1cc(Nc2cc(N)ncn2)c2ncn(C)c2n1)[C@@H]1CCC[C@@H](C#N)C1 (racemic) [Compound 13, (±)-(1R,3R)-3-{[7-(6-Amino-pyrimidin-4-ylamino)-3-methyl-3H-imidazo[4,5-b]pyridin-5-yl]-methyl-amino}-cyclohexanecarbonitrile]
IC50 [1]: 3.16 nM | IC50 [2]: 24.4 nM | IC50 [4]: 1.92 nM | IC50 [6]: 9.66 nM

Cc1cc(C#N)ncc1Oc1cc(Nc2ccc(N3CCC(N(C)C)CC3)cn2)c2ncn(C)c2n1 [Compound 181, 5-[7-[[5-[4-(dimethylamino)-1-piperidyl]-2-pyridyl]amino]-3-methyl-imidazo[4,5-b]pyridin-5-yl]oxy-4-methyl-pyridine-2-carbonitrile]
IC50 [1]: 36.9 nM | IC50 [2]: 151 nM | IC50 [4]: 7.08 nM | IC50 [6]: 396 nM

CC(Nc1cc(Nc2cc(N)ncn2)c2ncn(C)c2n1)C1CCC1 (stereo not drawn) [Compound 94, N7-(6-aminopyrimidin-4-yl)-N5-(1-cyclobutylethyl)-3-methyl-imidazo[4,5-b]pyridine-5,7-diamine]
IC50 [1]: 39.7 nM | IC50 [2]: 217 nM | IC50 [4]: 30.7 nM | IC50 [6]: 87.1 nM

Cc1cc(C#N)ncc1N(CC(C)O)c1cc(Nc2cc(N)ncn2)c2ncn(C)c2n1 (stereo not drawn) [Cpd 187, 5-[[7-[(6-aminopyrimidin-4-yl)amino]-3-methyl-imidazo[4,5-b]pyridin-5-yl]-(2-hydroxypropyl)amino]-4-methyl-pyridine-2-carbonitrile]
IC50 [1]: 42.3 nM | IC50 [2]: 127 nM | IC50 [4]: 6.54 nM | IC50 [6]: 660 nM

Cc1cc(C#N)ncc1Oc1cc(Nc2ccc(N3CCC(CO)CC3)cn2)c2ncn(C)c2n1 [Compound 184, 5-[7-[[5-[4-(hydroxymethyl)-1-piperidyl]-2-pyridyl]amino]-3-methyl-imidazo[4,5-b]pyridin-5-yl]oxy-4-methyl-pyridine-2-carbonitrile]
IC50 [1]: 22.1 nM | IC50 [2]: 59 nM | IC50 [4]: 6.42 nM | IC50 [6]: 487 nM

Cc1cc(C#N)ncc1Oc1cc(Nc2ccc(C(=O)N3C[C@@H](O)[C@H](N(C)C)C3)cn2)c2ncn(C)c2n1 [Compound 153, 5-{7-[5-((3R,4R)-3-Dimethylamino-4-hydroxy-pyrrolidine-1-carbonyl)-pyridin-2-ylamino]-3-methyl-3H-imidazo[4,5-b]pyridin-5-yloxy}-4-methyl-pyridine-2-carbonitrile]
IC50 [3]: 7580 nM | IC50 [4]: 1.83 nM | IC50 [5]: 234 nM

Cc1cc(C#N)ncc1Oc1cc(Nc2ccc(CN3CCOCC3)cn2)c2ncn(C)c2n1 [Compound 82, 4-methyl-5-[3-methyl-7-[[5-(morpholin-4-ylmethyl)pyridin-2-yl]amino]imidazo[4,5-b]pyridin-5-yl]oxypyridine-2-carbonitrile formate salt]
IC50 [3]: 195 nM | IC50 [4]: 8.15 nM | IC50 [5]: 126 nM

COCC1CN(C(=O)c2ccc(Nc3cc(Oc4cnc(C#N)cc4C)nc4c3ncn4C)nc2)C1 [Compound 104, 5-[7-[[5-[3-(methoxymethyl)azetidine-1-carbonyl]-2-pyridyl]amino]-3-methyl-imidazo[4,5-b]pyridin-5-yl]oxy-4-methyl-pyridine-2-carbontrile]
IC50 [3]: 108 nM | IC50 [4]: 2.88 nM | IC50 [5]: 65 nM

Cc1cc(C#N)ncc1Oc1cc(Nc2ccc(C(=O)N3CC(O)C3)cn2)c2ncn(C)c2n1 [Compound 96, 5-[7-[[5-(3-hydroxyazetidine-1-cabonyl)-2-pyridyl]amino]-3-methyl-imidazo[4,5-b]pyridin-5-yl]oxy-4-methyl-pyridine-2-carbonitrile]
IC50 [3]: 358 nM | IC50 [4]: 2.51 nM | IC50 [5]: 73 nM
